Assay results as given in patent US8399522B2, “3.2.1-bicyclo-octane compounds” (International Flavors & Fragrances Inc, priority 2010, dated 2013).

Tests used:
[1] = Mold/mildew malodor coverage, jar test ranked by sensory panel; set-up: species or system human; settings: compound 10% in solvent; for Mold/Mildew Malodor, mean rank of malodor coverage: 8 oz jar, 1 hour equilibration, 15-18 panelists, scale 1 (No Coverage), 3 (Moderate Coverage), 5 (Excellent Coverage)
Description: (§1) Establishment of Malodor Models: It is known that the perspirative malodors of human body, particularly sweat, are associated with the production of several unpleasant smelling organic acids, particularly isovaleric acid (“IVA”). The commercial sample of this malodorous material (commercially available at Sigma-Aldrich Inc.) was thus used as a model compound to assess the effectiveness of sweat malodor counteractants. The mold/mildew malodor model was prepared based on applicant's proprietary formulations for assessing the effectiveness of mold/mildew malodor counteractants.
(§2) Preparation of Test Samples: Two aluminum dishes were placed in an 8 oz glass jar. A malodor material was pipetted into one aluminum dish, and a compound of the present invention diluted in a solvent (10%) or a solvent alone control was pipetted into the other aluminum dish. The jar was then capped and the samples were allowed to equilibrate for one hour before the testing.
(§3) Testing Procedure: Test samples were presented in a blind and random order to 15-18 internal panelists (consisting of men/women with an age range of 25 to 55). However, different odor samples were arranged in an alternative order (for example, sweat, mold/mildew, sweat, mold/mildew, and etc.).
(§4) The panelists were instructed to take the steps of i) sniff jars containing only the malodor materials for familiarization prior to the testing; ii) uncap a jar; iii) place their noses at a distance of about 3-4 inches above the opening; iv) take short sniffs for 3 seconds; and v) provide a rank of the malodor coverage using an intensity scale of 1 to 5, where 1 represents “No Coverage”, 3 represents “Moderate Coverage”, and 5 represents “Excellent Coverage”. The means for each sample was then calculated.

Vapor pressure = format: physicochemical
[2] = Sweat malodor coverage, jar test ranked by sensory panel; set-up: species or system human; settings: compound 10% in solvent; for Sweat Malodor, mean rank of malodor coverage: 8 oz jar, 1 hour equilibration, 15-18 panelists, scale 1 (No Coverage), 3 (Moderate Coverage), 5 (Excellent Coverage)
Description: as §1, §2, §3, §4

Row | Compound | counteracting mold/mildew malodor (in words) [1] | Mold/Mildew Malodor, mean rank of malodor coverage [1] | Vapor Pressure (Vapor pressure) | counteracting sweat malodor (in words) [2] | Sweat Malodor, mean rank of malodor coverage [2]
1 | CC1C2CCC(C)(C2)CC12OCCO2 (centres unmarked) [Structure 5, 1,4-dimethyl-bicyclo[3.2.1]octan-3-dioxolane] | effective | 2.39 | 1281 µg/L | effective | 2.92
2 | CC1CC2(C)C3CCC(C)(C3)CC2O1 (centres unmarked) [Structure 4, 2,4,8-trimethyl-5-oxa-tricyclo [6.2.1.0*2,6*]undecane] | effective | 2.79 | 1045 µg/L | effective | 3.11
3 | CC1C(=O)CC2(C)CCC1C2 (centres unmarked) [Structure 2, 1,4-dimethyl-bicyclo[3.2.1]octan-3-one] | effective | 3.63 | 4305 µg/L | effective | 3.57
4 | CC12CCC(C1)C1(C)OC1C2 (centres unmarked) [Structure 1, 2,6-dimethyl-3-oxa-tricyclo[4.2.1.0*2,4*]nonane] | effective | 3.87 | 2186 µg/L | effective | 3.59
